Data set [1] addresses T1, FGFR2 (N549H) (Homo sapiens, UniProt P21802, N549H).
T1 construct: purchased Millipore 14-742
Briefly: fluorescent ELISA assay for inhibitors of FGFR2 kinase. The class given is biochemical. The conditions noted are these: Pyk2 peptide substrate, 60 minutes. The method in brief:
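FGFR2 enzyme (0.5 μM) phosphorylates biotinylated Pyk2 peptide (37 μM) with 12.5 μM ATP added, in Tris-HCl buffer containing 10 mM MgCl2, 2 mM DTT and 75 μM ATP, for 60 min. Peptide captured on streptavidin 30 min at room temperature; phosphotyrosine detected by antibody, alkaline phosphatase secondary and Attophos fluorescence (ex 400/em 595 nm). Inhibition seen as signal decrease.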
(In general: ELISA stands for enzyme-linked immunosorbent assay.)

The subject of data set [2] is cancer cells. Briefly: MTS cell growth inhibition assay (72 hours). The class given is cell-based. Summed up:
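Cells in DMEM with 1% FBS, seeded 18 h, then compound-treated 72 h at 37 °C. Viability by MTS/PMS for 4 h, formazan absorbance at 492 nm; IC50 taken as concentration giving 50% absorbance drop, activity banded by percent inhibition.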

Where [3] appears, read: Homo sapiens, DLD-1, 72 h, DLD-1 cells, read-out: DLD-1 MTS 72 hr at 10 μM.
Where [4] appears, read: Homo sapiens, KATO III, 72 h, KATO III cells, read-out: KATO III MTS 72 hr at 10 μM.
[5] abbreviates: Homo sapiens, MDA-MB-231, 72 h, MDA-MB-231 cells, read-out: MDA-MB-231 MTS 72 hr at 10 μM.
[6] abbreviates: Homo sapiens, NCI-H1299, 72 h, NCI-H1299 cells, read-out: NCI-H1299 MTS 72 hr at 10 μM.
Where [7] appears, read: PaCa-2, 72 h, PACA-2 cells, read-out: PACA-2 MTS 72 hr at 10 μM.

As a reminder, the IC50 is the concentration at which inhibition is half-maximal. Read a low IC50 as inhibition by little substance. The term melting point denotes the temperature, or range, at which the solid turns liquid.

Like-named read-outs stand apart in the source and are kept apart here.

T1 sequence (P21802 22-821 N549H): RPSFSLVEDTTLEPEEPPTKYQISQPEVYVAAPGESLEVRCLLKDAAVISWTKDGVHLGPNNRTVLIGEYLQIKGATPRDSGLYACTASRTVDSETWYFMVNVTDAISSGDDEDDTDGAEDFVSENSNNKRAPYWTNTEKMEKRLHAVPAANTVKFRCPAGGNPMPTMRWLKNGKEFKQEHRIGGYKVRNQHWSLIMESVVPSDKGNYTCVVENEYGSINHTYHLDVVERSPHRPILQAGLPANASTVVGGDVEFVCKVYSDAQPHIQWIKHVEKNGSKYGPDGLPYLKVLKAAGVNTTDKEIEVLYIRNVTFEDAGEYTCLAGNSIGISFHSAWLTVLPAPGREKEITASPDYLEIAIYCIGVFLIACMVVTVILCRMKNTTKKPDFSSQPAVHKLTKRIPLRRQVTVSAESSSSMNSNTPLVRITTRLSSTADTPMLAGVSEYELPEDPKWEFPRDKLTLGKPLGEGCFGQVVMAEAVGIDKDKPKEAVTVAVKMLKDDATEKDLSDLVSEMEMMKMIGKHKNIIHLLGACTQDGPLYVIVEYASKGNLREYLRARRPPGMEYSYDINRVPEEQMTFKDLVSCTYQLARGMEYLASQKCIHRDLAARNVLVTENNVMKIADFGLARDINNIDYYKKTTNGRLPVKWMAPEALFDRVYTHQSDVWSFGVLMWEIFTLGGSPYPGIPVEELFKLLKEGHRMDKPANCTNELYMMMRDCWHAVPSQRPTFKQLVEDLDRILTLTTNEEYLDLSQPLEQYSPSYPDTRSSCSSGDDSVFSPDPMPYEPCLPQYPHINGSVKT

As to `Nc1nc(NC2Cc3ccccc3N(Cc3ccc(F)cc3F)C2)c2cn[nH]c2n1` (centres unmarked) [Compound 1, N^4-(1-(2,4-difluorobenzyl)-1,2,3,4-tetrahydroquinolin-3-yl)-1H-pyrazolo[3,4-d]pyrimidine-4,6-diamine], the melting point lay in the range of 110 to 114 °C. 1.81 µM corresponded to half-maximal inhibition in data set [1] (IC50). Moreover, the inhibition at 10 µM in data set [2] (setting [3]) is greater than 79%. Besides, the inhibition at 10 µM in data set [2] (setting [4]) was greater than 79%. The inhibition at 10 µM in data set [2] (setting [5]) is less than 50%. For the same molecule, the inhibition at 10 µM in data set [2] (setting [6]) lay in the range of 50 to 79%. In addition, the inhibition at 10 µM in data set [2] (setting [7]) is 50 to 79%.

In the case of `Nc1nc(NC2Cc3ccccc3N(CCc3ccccc3)C2)c2cn[nH]c2n1` (centres unmarked) [Compound 2, N^4-(1-(2-phenylethyl)-1,2,3,4-tetrahydroquinolin-3-yl)-1H-pyrazolo[3,4-d]pyrimidine-4,6-diamine], the melting point fell in the range of 117 to 122 °C. In data set [1], this molecule gave a 50% inhibitory concentration (IC50) of 0.17 µM. Further, in data set [2] (setting [3]), the inhibition at 10 µM fell in the range of 50 to 79%. Also, the inhibition at 10 µM in data set [2] (setting [4]) is 50 to 79%. Besides, in data set [2] (setting [5]), the inhibition at 10 µM is less than 50%. In addition, the inhibition at 10 µM in data set [2] (setting [6]) lay in the range of 50 to 79%. The inhibition at 10 µM in data set [2] (setting [7]) is less than 50%.

Molecule `Nc1nc(NC2Cc3ccccc3N(Cc3ccc(Cl)cc3Cl)C2)c2cn[nH]c2n1` (centres unmarked) [Compound 4, N^4-(1-(2,4-dichlorobenzyl)-1,2,3,4-tetrahydroquinolin-3-yl)-1H-pyrazolo[3,4-d]pyrimidine-4,6-diamine] yielded a melting point of 170 to 174 °C. This molecule also registered an IC50 in data set [1] of 3.06 µM. Further, the inhibition at 10 µM in data set [2] (setting [3]) was greater than 79%. The inhibition at 10 µM in data set [2] (setting [4]) was greater than 79%. In data set [2] (setting [5]), the inhibition at 10 µM is greater than 79%. In addition, in data set [2] (setting [6]), the inhibition at 10 µM was greater than 79%. Also, in data set [2] (setting [7]), the inhibition at 10 µM is greater than 79%.

With `Nc1nc(NC2Cc3ccccc3N(Cc3cccc(C(F)(F)F)c3)C2)c2cn[nH]c2n1` (centres unmarked) [Compound 5, N^4-(1-(3-(trifluoromethyl)benzyl)-1,2,3,4-tetrahydroquinolin-3-yl)-1H-pyrazolo[3,4-d]pyrimidine-4,6-diamine], the melting point was 89 to 94 °C. The molecule further had a half-inhibitory concentration (IC50) in data set [1] of 10.7 µM. In addition, the inhibition at 10 µM in data set [2] (setting [3]) is less than 50%. The inhibition at 10 µM in data set [2] (setting [4]) lay within 50 to 79%. Also, the inhibition at 10 µM in data set [2] (setting [5]) was less than 50%. Moreover, the inhibition at 10 µM in data set [2] (setting [6]) is less than 50%. In data set [2] (setting [7]), the inhibition at 10 µM is less than 50%.

With `Nc1nc(N[C@H]2Cc3ccccc3N(Cc3ccc(F)cc3)C2)c2cn[nH]c2n1` [Compound 8, N^4-((3S)-1-(4-fluorobenzyl)-1,2,3,4-tetrahydroquinolin-3-yl)-1H-pyrazolo[3,4-d]pyrimidine-4,6-diamine], the melting point was in the range of 78 to 80 °C. Besides, in data set [1], the IC50 was 11 µM. The inhibition at 10 µM in data set [2] (setting [3]) was greater than 79%. Also, the inhibition at 10 µM in data set [2] (setting [4]) is greater than 79%. Also, in data set [2] (setting [5]), the inhibition at 10 µM was less than 50%. The inhibition at 10 µM in data set [2] (setting [6]) was less than 50%. Moreover, the inhibition at 10 µM in data set [2] (setting [7]) was less than 50%.

Regarding `Nc1nc(N[C@@H]2Cc3ccccc3N(Cc3ccc(F)cc3)C2)c2cn[nH]c2n1` [Compound 9, (R)—N4-(1-(4-fluorobenzyl)-1,2,3,4-tetrahydroquinolin-3-yl)-1H-pyrazolo[3,4-d]pyrimidine-4,6-diamine], the melting point lay in the range of 140 to 143 °C. In data set [1], the 50% inhibitory concentration (IC50) came out at 0.22 µM. The inhibition at 10 µM in data set [2] (setting [3]) fell in the range of 50 to 79%. For the same molecule, the inhibition at 10 µM in data set [2] (setting [4]) is greater than 79%. In addition, the inhibition at 10 µM in data set [2] (setting [5]) was less than 50%. Moreover, the inhibition at 10 µM in data set [2] (setting [6]) fell in the range of 50 to 79%. Further, the inhibition at 10 µM in data set [2] (setting [7]) was 50 to 79%.

`Nc1nc(NC2Cc3ccccc3N(c3ccccc3)C2)c2cn[nH]c2n1` (centres unmarked) [Compound 11, N^4-(1-phenyl-1,2,3,4-tetrahydroquinolin-3-yl)-1H-pyrazolo[3,4-d]pyrimidine-4,6-diamine] returned a melting point of 88 to 92 °C. In data set [1], this molecule came in with an IC50 of 2.08 µM. Besides, the inhibition at 10 µM in data set [2] (setting [3]) was less than 50%. Besides, the inhibition at 10 µM in data set [2] (setting [4]) is less than 50%. Moreover, in data set [2] (setting [5]), the inhibition at 10 µM is less than 50%. Besides, in data set [2] (setting [6]), the inhibition at 10 µM is less than 50%. Moreover, the inhibition at 10 µM in data set [2] (setting [7]) was less than 50%.

The molecule `Nc1nc(NC2Cc3ccccc3N(C(=O)c3ccccc3)C2)c2cn[nH]c2n1` (centres unmarked) [Compound 12, (3-(6-amino-1H-pyrazolo[3,4-d]pyrimidin-4-ylamino)-3,4-dihydroquinolin-1(2H)-yl)(phenyl)methanone] gave a melting point of 155 to 164 °C. For the same molecule, half-maximal inhibition in data set [1] (IC50) was put at 21 µM. Further, in data set [2] (setting [3]), the inhibition at 10 µM is less than 50%. For the same molecule, the inhibition at 10 µM in data set [2] (setting [4]) was less than 50%. The inhibition at 10 µM in data set [2] (setting [5]) is less than 50%. Besides, the inhibition at 10 µM in data set [2] (setting [6]) is less than 50%. Besides, the inhibition at 10 µM in data set [2] (setting [7]) was less than 50%.

Take `Nc1nc(NC2Cc3ccccc3N(C(=O)c3ccc(Cl)cc3Cl)C2)c2cn[nH]c2n1` (centres unmarked) [Compound 13, (3-(6-amino-1H-pyrazolo[3,4-d]pyrimidin-4-ylamino)-3,4-dihydroquinolin-1(2H)-yl)(2,4-dichlorophenyl)methanone]: the melting point fell in the range of 165 to 173 °C. Besides, the half-maximal inhibitory concentration (IC50) in data set [1] came to 17.9 µM. Besides, the inhibition at 10 µM in data set [2] (setting [3]) is less than 50%. The inhibition at 10 µM in data set [2] (setting [4]) was less than 50%. Also, the inhibition at 10 µM in data set [2] (setting [5]) was less than 50%. Moreover, the inhibition at 10 µM in data set [2] (setting [6]) is less than 50%. The inhibition at 10 µM in data set [2] (setting [7]) is less than 50%.

In turn, `Nc1nc(NC2Cc3ccccc3N(S(=O)(=O)c3ccc(Cl)cc3Cl)C2)c2cn[nH]c2n1` (centres unmarked) [Compound 14, N^4-(1-(2,4-dichlorophenylsulfonyl)-1,2,3,4-tetrahydroquinolin-3-yl)-1H-pyrazolo[3,4-d]pyrimidine-4,6-diamine] displayed a melting point of 153 to 163 °C. This molecule came in with a half-inhibitory concentration (IC50) in data set [1] of 0.23 µM. The inhibition at 10 µM in data set [2] (setting [3]) is less than 50%. Further, the inhibition at 10 µM in data set [2] (setting [4]) is 50 to 79%. Moreover, the inhibition at 10 µM in data set [2] (setting [5]) was less than 50%. The inhibition at 10 µM in data set [2] (setting [6]) is less than 50%. In addition, the inhibition at 10 µM in data set [2] (setting [7]) was less than 50%.

Consider `Nc1nc(NC2Cc3ccccc3N(Cc3cccc(F)c3)C2)c2cn[nH]c2n1` (centres unmarked) [Compound 128, N4-[1-(3-fluorobenzyl)-1,2,3,4-tetrahydroquinolin-3-yl]-1H-pyrazolo[3,4-d]pyrimidine-4,6-diamine], for which the IC50 in data set [1] came to 2.23 µM. Also, the inhibition at 10 µM in data set [2] (setting [3]) was less than 50%; in data set [2] (setting [4]) it was 50 to 79%; in data set [2] (setting [5]), less than 50%; in data set [2] (setting [6]) it was less than 50%; in data set [2] (setting [7]), 50 to 79%.

Consider `Cc1ccccc1CN1CC(Nc2nc(N)nc3[nH]ncc23)Cc2ccccc21` (centres unmarked) [Compound 129, N4-[1-(2-methylbenzyl)-1,2,3,4-tetrahydroquinolin-3-yl]-1H-pyrazolo[3,4-d]pyrimidine-4,6-diamine], for which the IC50 in data set [1] was found to be 16.2 µM. The inhibition at 10 µM in data set [2] (setting [3]) was less than 50%; in data set [2] (setting [4]), 50 to 79%; in data set [2] (setting [5]), less than 50%; in data set [2] (setting [6]) it was less than 50%; in data set [2] (setting [7]), less than 50%.

`CC(C)(C)c1ccc(CN2CC(Nc3nc(N)nc4[nH]ncc34)Cc3ccccc32)cc1` (centres unmarked) [Compound 131, N4-[1-(4-tert-butylbenzyl)-1,2,3,4-tetrahydroquinolin-3-yl]-1H-pyrazolo[3,4-d]pyrimidine-4,6-diamine]: the IC50 in data set [1] is greater than 30 µM. The inhibition at 10 µM in data set [2] (setting [3]), in data set [2] (setting [4]), in data set [2] (setting [5]), in data set [2] (setting [6]) and in data set [2] (setting [7]) was less than 50% in each case.

Molecule `COc1ccccc1CN1CC(Nc2nc(N)nc3[nH]ncc23)Cc2ccccc21` (centres unmarked) [Compound 132, N4-[1-(2-methoxybenzyl)-1,2,3,4-tetrahydroquinolin-3-yl]-1H-pyrazolo[3,4-d]pyrimidine-4,6-diamine] registered a concentration for half-maximal inhibition (IC50) in data set [1] of 22.3 µM. For the same molecule, the inhibition at 10 µM in data set [2] (setting [3]), in data set [2] (setting [4]), in data set [2] (setting [5]), in data set [2] (setting [6]) and in data set [2] (setting [7]) was less than 50% each time.

Turning to `Nc1nc(NC2Cc3ccccc3N(S(=O)(=O)c3ccc(NC(=O)Nc4ccc(Cl)c(C(F)(F)F)c4)cc3)C2)c2cn[nH]c2n1` (centres unmarked) [Compound 222, 1-(4-(3-(6-amino-1H-pyrazolo[3,4-d]pyrimidin-4-ylamino)-3,4-dihydroquinolin-1(2H)-ylsulfonyl)phenyl)-3-(4-chloro-3-(trifluromethyl)phenyl)urea], the IC50 in data set [1] is greater than 0.3 µM. Also, the inhibition at 10 µM in data set [2] (setting [3]), in data set [2] (setting [4]), in data set [2] (setting [5]), in data set [2] (setting [6]) and in data set [2] (setting [7]) was greater than 79% in each case.

Take `Nc1nc(NC2Cc3ccccc3N(Cc3cccc(-c4ccccc4)c3)C2)c2cn[nH]c2n1` (centres unmarked) [Compound 224, N4-(1-(biphenyl-3-ylmethyl)-1,2,3,4-tetrahydroquinolin-3-yl)-1H-pyrazolo[3,4-d]pyrimidine-4,6-diamine]: the melting point is 128 to 132 °C. This molecule also displayed a 50% inhibitory concentration (IC50) in data set [1] of 19.3 µM. Moreover, in data set [2] (setting [3]), the inhibition at 10 µM is greater than 79%. For the same molecule, the inhibition at 10 µM in data set [2] (setting [4]) was greater than 79%. The inhibition at 10 µM in data set [2] (setting [5]) was less than 50%. Further, in data set [2] (setting [6]), the inhibition at 10 µM is greater than 79%. Also, the inhibition at 10 µM in data set [2] (setting [7]) was greater than 79%.

Source of the values: patent US8273754B2, “Substituted 1H-pyrazolo[3,4-D]pyrimidine-6-amine compounds” (ArQule, Inc., priority 2008, dated 2012).
